Results: PubChem BioAssay (NCI)
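Protocol summary: plate cells (96-well), add compound at 5 concentrations, incubate 48 h, interpolate endpoints linearly. Abbreviation: GI50, concentration required for 50% inhibition of growth. TGI denotes the concentration required for complete inhibition of growth.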

What was measured:
Assay in all cases: growth of human tumour cells (NCI), 48 h
786-0 renal = test system: 786-0 renal
A498 renal = test system: A498 renal
A549 NSCLC = test system: A549 NSCLC
ACHN renal = test system: ACHN renal
BT-549 breast = test system: BT-549 breast
CAKI-1 renal = test system: CAKI-1 renal
CCRF-CEM leukemia = test system: CCRF-CEM leukemia
COLO 205 colon = test system: COLO 205 colon
DU-145 prostate = test system: DU-145 prostate
EKVX NSCLC = test system: EKVX NSCLC
HCC-2998 colon = test system: HCC-2998 colon
HCT-116 colon = test system: HCT-116 colon
HCT-15 colon = test system: HCT-15 colon
HL-60(TB) leukemia = test system: HL-60(TB) leukemia
HOP-62 NSCLC = test system: HOP-62 NSCLC
HOP-92 NSCLC = test system: HOP-92 NSCLC
HS 578T breast = test system: HS 578T breast
HT29 colon = test system: HT29 colon
IGROV1 ovarian = test system: IGROV1 ovarian
K-562 leukemia = test system: K-562 leukemia
KM12 colon = test system: KM12 colon
LOX IMVI melanoma = test system: LOX IMVI melanoma
M14 melanoma = test system: M14 melanoma
MALME-3M melanoma = test system: MALME-3M melanoma
MCF7 breast = test system: MCF7 breast
MDA-MB-231 breast = test system: MDA-MB-231 breast
MDA-MB-435 = test system: MDA-MB-435
MDA-MB-468 breast = test system: MDA-MB-468 breast
MOLT-4 leukemia = test system: MOLT-4 leukemia

## O=C(c1ccc(Cl)cc1)C1[C@H](c2ccc(Br)cc2)[C@@H](c2ccccc2)NC12C(=O)Nc1ccc(Cl)cc12 (stereo partly drawn)
786-0 renal
  GI50: 0.905 µM
  TGI: 1.89 µM
A498 renal
  GI50: 7.48 µM
  TGI: 15 µM
A549 NSCLC
  GI50: 2.31 µM
  TGI: 9.53 µM
ACHN renal
  GI50: 2.17 µM
  TGI: 8.6 µM
BT-549 breast
  GI50: 2.71 µM
  TGI: 9.33 µM
CAKI-1 renal
  GI50: 1.42 µM
  TGI: 8.42 µM
CCRF-CEM leukemia
  GI50: 2.79 µM
  TGI: 13 µM
COLO 205 colon
  GI50: 5.85 µM
  TGI: 14.2 µM
DU-145 prostate
  GI50: 5.9 µM
  TGI: 13.6 µM
EKVX NSCLC
  GI50: 4.03 µM
  TGI: 11.7 µM
HCC-2998 colon
  GI50: 1.63 µM
  TGI: 7.02 µM
HCT-116 colon
  GI50: 0.986 µM
  TGI: 3.01 µM
HCT-15 colon
  GI50: 2.15 µM
  TGI: 8.97 µM
HL-60(TB) leukemia
  GI50: 4.65 µM
  TGI: 16.7 µM
HOP-62 NSCLC
  GI50: 6.07 µM
  TGI: 13.1 µM
HOP-92 NSCLC
  GI50: 2.3 µM
  TGI: 9.31 µM
HS 578T breast
  GI50: 6.82 µM
  TGI: 23 µM
HT29 colon
  GI50: 1.14 µM
  TGI: 3.22 µM
IGROV1 ovarian
  GI50: 2.76 µM
  TGI: 9.96 µM
K-562 leukemia
  GI50: 1.64 µM
  TGI: 11.7 µM
KM12 colon
  GI50: 2.17 µM
  TGI: 9.98 µM
LOX IMVI melanoma
  GI50: 1.83 µM
  TGI: 10.1 µM
M14 melanoma
  GI50: 2.06 µM
  TGI: 8.82 µM
MALME-3M melanoma
  GI50: 7.09 µM
  TGI: 13.9 µM
MCF7 breast
  GI50: 1.69 µM
  TGI: 6.82 µM
MDA-MB-231 breast
  GI50: 4.63 µM
  TGI: 11.3 µM
MDA-MB-435
  GI50: 2.81 µM
  TGI: 9.75 µM
MDA-MB-468 breast
  GI50: 3.54 µM
  TGI: 11.4 µM
MOLT-4 leukemia
  GI50: 1.64 µM
  TGI: 8.26 µM
